# Source: patent EP4653435A1, “PRMT5-MTA INHIBITOR” (Suzhou Puhe Biopharma Co., Ltd., priority 2023, dated 2024)
# Like-named read-outs stand apart in the source and are kept apart here.
# Key:
# [1] = Liver microsomal stability assay, human
# Procedure: (§5) The compounds to be tested were co-incubated with liver microsomes of different species with or without the addition of NADPH. The final concentration of the test compounds in the test system was 1 µM, the final concentration of NADPH was 1 mM, and the final concentration of liver microsomes was 0.5 mg/mL.
# [2] = Membrane permeability: Caco-2 assay; format: in vitro ADME; details: human; for Papp A→B / Papp B→A: Caco-2, apical pH 6.5, basolateral pH 7.4
# Procedure: The membrane permeability of the molecules of the invention was evaluated. […] Efflux Ratio = Papp(B−A) /Papp(A−B) [formula]
# [3] = test system: HCT116-MTAPdel; assay: 2D antiproliferative assay (CTG cell viability), MTAP-deficient cells; format: cell-based; details: for IC50: Homo sapiens, HCT-116, HCT116 MTAP-deficient cells, 7-10 days, CTG, read-out: HCT116-MTAPdel/IC50/nM; for HCT116WT IMTAPdel selectivity: ratio IC50 wild type / MTAPdel, antiproliferation
# Procedure: (§1) HCT116 wild-type and MTAP-deficient cells were cultured in McCoy's 5A medium containing 10% FBS and 1% penicillin-streptomycin, and cultured in a 37°C, 5% CO2 constant temperature incubator. 40 µL of cell suspension was introduced into each well of a 384-well microplate. 40 nL of different concentrations of test compounds were added to each well using an Echo, before culturing in a 37°C, 5% CO2 constant temperature incubator for 7-10 days. 40 µL of CTG solution (Promega, Cat No. G7573) was added to each well and incubated in a 37°C, 5% CO2 constant temperature incubator for 30 minutes in the dark.
# [4] = test system: HCT116-MTAPwt; assay: 2D antiproliferative assay (CTG cell viability), wild-type cells; format: cell-based; details: Homo sapiens, HCT-116, 7-10 days
# Procedure: as §1
# [5] = test system: SDMA/HCT116-MTAPwt; assay: In-cell arginine symmetric dimethylation inhibition (In-cell western, ICW), wild-type cells; format: cell-based; details: Homo sapiens, HCT-116, 96 hours
# Procedure: (§2) 60 nL of different concentrations of compounds were added to each well using an Echo, and incubated at 37°C, 5% CO2 for 96 hours.
# (§3) Next, 50 µL of 4% paraformaldehyde solution was added to each well and incubated at room temperature for 20 minutes to fix the cells. The solution in the wells was removed, and each well was rinsed four times with PBS solution containing 0.1% Tween 20 (PBST). To each well was then added 30 µL of ice-cold methanol. After standing at -20°C for 10 minutes, the methanol was removed and the wells washed four times with PBST. 30 µL of Odyssey blocking solution containing 0.5% Tween 20 was added to each well and shaken for 2 hours at room temperature. The blocking solution was removed and 30 µL of primary antibody (Symmetric Di-Methyl Arginine Motif [sdma-RG] MultiMab™ Rabbit mAb mix) diluted at 1:500 in Odyssey blocking solution containing 0.5% Tween 20 was added to each well. The plates were incubated overnight at 4°C, before removing the primary antibody and rinsing each well four times with PBST, 5 minutes per rinse. Secondary antibody (goat anti-rabbit IRDye 800CW, 1:800) and nuclear stain (DRAQ5, 1:10000) diluted in Odyssey blocking solution containing 0.5% Tween 20 were then added to each well before incubating at room temperature for 2 hours in the dark. The secondary antibody was removed, and the wells rinsed four times with PBST.
# (§4) The sdme-RG and DRAQ5 signals were scanned at 800 nm and 700 nm respectively on a Li-Cor Odyssey instrument and the signal values recorded. The sdme-RG/DRAQ5 ratio was used to calculate the percentage inhibition of arginine symmetric dimethylation (SDMA), and the IC50 value calculated using GraphPad Prism software.
# [6] = test system: SDMA/HCT116-MTAPdel; assay: In-cell arginine symmetric dimethylation inhibition (In-cell western, ICW), MTAP-deficient cells; format: cell-based; details: Homo sapiens, HCT-116; HCT116 MTAP-deficient cells, 96 hours
# Procedure: as §2, §3, §4
# [7] = Liver microsomal stability assay, mouse; format: in vitro ADME; details: mouse liver microsomes 0.5 mg/mL, compound 1 µM, NADPH 1 mM, 60 minute
# Procedure: as §5
# [8] = Mouse pharmacokinetics testing; format: in vivo, CD1 female mice; details: CD1 female mice; for AUC(0-t): read-out: AUC0-24; for half-life: read-out: T1/2 (converted)
# Procedure: CD1 female mice were used as test animals and administered the compounds orally/intravenously (oral dosage was 10 mg/kg and intravenous dosage was 2 mg/kg). Test protocol: Each oral and intravenous group consisted of three mice. […] Plasma drug concentrations after oral and intravenous administration were determined by LC/MS/MS, and the collected data analyzed using AB Sciex QTRAP 6500 software.
smiles,measurement,setting,value
C[C@@H]1CC[C@@H](c2ccc3scnc3c2)N(C(=O)C(=O)Nc2cnc(N)c3c2cnn3C)C1 (racemic) [Compound P3],"CLint scaled at 1 h, 1 µM",[1]; liver microsomes,23.9 mL/min/kg
same,Papp A→B,[2],2.66 ×10⁻⁶ cm/s
same,Papp B→A,[2],34.2 ×10⁻⁶ cm/s
same,IC50,[3],13 nM
same,IC50,[4],827 nM
C[C@H]1CC[C@H](c2ccc3sc(CCN(C)C)nc3c2)N(C(=O)C(=O)Nc2cnc(N)c3c2cnn3C)C1 (racemic) [Compound P15],"CLint scaled at 1 h, 1 µM",[1]; microsomes,9.7 mL/min/kg
same,IC50,[3],6 nM
same,HCT116WT IMTAPdel selectivity,[3],34
same,IC50,[4],203 nM
"Cc1cc2cc(C(=O)N(Cc3ccc(C(F)(F)F)cn3)[C@H](C)c3ncccn3)ccc2nc1N [AM9747, reference compound]",IC50,[5],332 nM
same,IC50,[3],7 nM
same,IC50,[6],0.6 nM
same,IC50,[4],237 nM
CN(C(=O)C(=O)Nc1cnc(N)c2c1cnn2C)[C@@H]1COCc2nc(-c3cncc(Cl)c3)ccc21 [Compound H2b],CLint scaled at 1 µM,[1]; liver microsomes,21.3 mL/min/kg
same,IC50,[3],4 nM
same,HCT116WT IMTAPdel selectivity,[3],308
same,IC50,[4],1230 nM
C[C@H](c1ncccn1)N(Cc1ccc(C(F)(F)F)cn1)C(=O)C(=O)Nc1cnc(N)c2c1cnn2C [Compound P1],"CLint scaled at 1 h, 1 µM",[1]; microsomes,18 mL/min/kg
same,IC50,[3],9 nM
same,HCT116WT IMTAPdel selectivity,[3],22
same,"CLint scaled at 1 h, 1 µM",[7],177 mL/min/kg
same,IC50,[4],196 nM
CN(C(=O)C(=O)Nc1cnc(N)c2c1cnn2C)C1COc2cc(C(F)(F)F)ccc21 (stereo not drawn) [Compound P2],CLint scaled at 1 µM,[1]; liver microsomes,13 mL/min/kg
same,efflux ratio,"[2]; Caco-2, Efflux Ratio = Papp(B-A)/Papp(A-B)",1.5
same,Papp A→B,[2],13.5 ×10⁻⁶ cm/s
same,Papp B→A,[2],20.5 ×10⁻⁶ cm/s
same,IC50,[3],32 nM
same,HCT116WT IMTAPdel selectivity,[3],84
same,IC50,[4],2680 nM
C[C@H]1CC[C@H](c2ccc3scnc3c2)N(C(=O)C(=O)Nc2cnc(N)c3c2cnn3C)C1 [Compound P3b],IC50,[5],578 nM
same,F,[8]; PO (10 mg/kg) vs IV (2 mg/kg),31%
same,AUC(0-t),"[8]; mouse, IV (2 mg/kg), plasma",383 ng·h/mL
same,C0,"[8]; mouse, IV (2 mg/kg), plasma, read-out: C0",1650 ng/mL
same,clearance,"[8]; mouse, IV (2 mg/kg), plasma, read-out: Cl",86.6 mL/min/kg
same,half-life,"[8]; mouse, IV (2 mg/kg), plasma",19.2 min
same,AUC(0-t),"[8]; mouse, PO (10 mg/kg), plasma",586 ng·h/mL
same,Cmax,"[8]; mouse, PO (10 mg/kg), plasma, read-out: Cmax",883 ng/mL
same,half-life,"[8]; mouse, PO (10 mg/kg), plasma",66 min
same,Tmax,"[8]; mouse, PO (10 mg/kg), plasma, read-out: Tmax",15 min
same,IC50,[3],2 nM
same,IC50,[6],0.6 nM
same,IC50,[4],275 nM
